Results as given in patent US9006282B2 (Redx Pharma Limited, priority 2009, dated 2015).

Columns and labels:
HMG-CoA Reductase = HMG-CoA Reductase (Homo sapiens (Human), UniProt P04035); experiment: HMG-CoA Reductase assay kit (Sigma-Aldrich CS1090), spectrophotometric NADPH absorbance at 340 nm; format: biochemical; conditions: inhibitor varied 0 nM to 50 nM, NADPH and HMG-CoA 200 μM
Protocol: All assays were carried out in a reaction buffer containing […] KxPO4 at pH 7.2, 1 mM EDTA, 500 mM KCl and 1 mg/ml BSA. The concentrations of NADPH and HMG-CoA were both 200 μM. […] Absorbance readings were then taken every 20 seconds for 600 seconds.
Preparation of the Assay Solution
Add a buffer to all samples. • b. […] Add the reconstituted NADPH to all samples. • d. Add Substrate Solution (HMG-CoA) to all samples. • e. […] Mix the samples thoroughly.
3. The kinetics programme was started immediately.
V=volume of enzyme used in the assay (ml)
0.6=enzyme concentration in mg-protein (mgPO/ml (0.55-0.65 mgP/ml)
LP=light path in cm (1 for cuvettes).

[1] = tested on: rat plasma triglyceride levels; experiment: Rat plasma triglyceride levels after 3 or 5 days BID oral treatment; format: in vivo; conditions: male SD rats, 25 mg/kg po BID for 3 or 5 days, plasma 16 hours after last dose

HMG-CoA Reductase, sequence (P04035 340-888): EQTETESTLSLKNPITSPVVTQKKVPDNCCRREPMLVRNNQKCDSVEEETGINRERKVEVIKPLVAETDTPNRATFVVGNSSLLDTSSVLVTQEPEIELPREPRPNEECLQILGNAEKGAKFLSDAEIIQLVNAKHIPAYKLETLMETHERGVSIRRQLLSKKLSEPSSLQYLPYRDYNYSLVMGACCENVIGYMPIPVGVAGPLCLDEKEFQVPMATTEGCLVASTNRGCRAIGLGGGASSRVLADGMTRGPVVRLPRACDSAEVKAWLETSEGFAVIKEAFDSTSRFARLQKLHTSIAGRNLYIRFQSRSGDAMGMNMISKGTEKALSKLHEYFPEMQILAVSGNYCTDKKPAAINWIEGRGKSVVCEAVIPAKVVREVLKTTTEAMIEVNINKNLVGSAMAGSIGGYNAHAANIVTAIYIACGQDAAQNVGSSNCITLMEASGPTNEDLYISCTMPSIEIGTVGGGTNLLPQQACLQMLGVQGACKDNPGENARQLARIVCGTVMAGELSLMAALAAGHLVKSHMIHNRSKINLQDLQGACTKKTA

SMILES | IC50 (HMG-CoA Reductase; rosuvastatin compounds) [nM] | IC50 (HMG-CoA Reductase; atorvastatin compounds) [nM] | other results
CC(C)c1nc(N(C)S(C)(=O)=O)nc(-c2ccc(F)cc2)c1/C=C/[C@@H]1C[C@@H](O)CC(Oc2c(F)cc(F)cc2F)O1 (some centres unmarked) | 1 | – | –
CCCOC1C[C@H](O)C[C@@H](/C=C/c2c(-c3ccc(F)cc3)nc(N(C)S(C)(=O)=O)nc2C(C)C)O1 (some centres unmarked) | 10 | – | –
CC(C)c1nc(N(C)S(C)(=O)=O)nc(-c2ccc(F)cc2)c1/C=C/[C@@H]1C[C@@H](O)CC(OCC(Cl)(Cl)Cl)O1 (some centres unmarked) | 2 | – | –
COc1ccc(OC2C[C@H](O)C[C@@H](/C=C/c3c(-c4ccc(F)cc4)nc(N(C)S(C)(=O)=O)nc3C(C)C)O2)c(OC)c1 (some centres unmarked) | 2 | – | –
CC(C)c1nc(N(C)S(C)(=O)=O)nc(-c2ccc(F)cc2)c1C=CC(O)CC(O)CC(=O)O (centres unmarked) [rosuvastatin, 7-[4-(4-fluorophenyl)-6-(1-methylethyl)-2-(methyl-methylsulfonyl-amino)-pyrimidin-5-yl]-3,5-dihydroxy-hept-6-enoic acid] | – | – | effect on plasma triglycerides [1]: marked reduction in plasma triglycerides

Second part, led by results:

IC50 (HMG-CoA Reductase; rosuvastatin compounds) [nM] | IC50 (HMG-CoA Reductase; atorvastatin compounds) [nM] | SMILES | other results
– | < 1 | COc1ccc(OC2C[C@H](O)C[C@@H](CCn3c(-c4ccc(F)cc4)c(-c4ccccc4)c(C(=O)Nc4ccccc4)c3C(C)C)O2)c(OC)c1 (some centres unmarked) | –
2 | – | CC(C)c1nc(N(C)S(C)(=O)=O)nc(-c2ccc(F)cc2)c1/C=C/[C@@H]1C[C@@H](OCc2ccccc2)CC(OCC(Cl)(Cl)Cl)O1 (some centres unmarked) | –
– | < 1 | CC(C)c1c(C(=O)Nc2ccccc2)c(-c2ccccc2)c(-c2ccc(F)cc2)n1CC[C@@H]1C[C@@H](O)CC(OC2CCCCC2)O1 (some centres unmarked) | –
– | < 1 | CCCOC1C[C@H](O)C[C@@H](CCn2c(-c3ccc(F)cc3)c(-c3ccccc3)c(C(=O)Nc3ccccc3)c2C(C)C)O1 (some centres unmarked) | –
< 1 | – | COC1C[C@H](OC(=O)c2cccnc2)C[C@@H](/C=C/c2c(-c3ccc(F)cc3)nc(N(C)S(C)(=O)=O)nc2C(C)C)O1 (some centres unmarked) | –
– | < 1 | COC1C[C@H](OC(=O)c2cccnc2)C[C@@H](CCn2c(-c3ccc(F)cc3)c(-c3ccccc3)c(C(=O)Nc3ccccc3)c2C(C)C)O1 (some centres unmarked) | –
